Laboratory results reported in article PMC8333425, “Discovery of a dual Ras and ARF6 inhibitor from a GPCR endocytosis screen” (Nature Communications, 2021).
≈ marks a conversion by molar mass, not a printed value. Where “and” joins values, the source holds several entries; their conditions need not be identical. Equal values may be shown once.

How the values were obtained:
[1] = system: ERK1/2 activation by AT1R; assay: Western blot of AT1R-mediated ERK1/2 phosphorylation; format: cell-based, human; settings: for p-ERK1/2 over ERK1/2, normalized to basal (0 min), AT1R: Comp 21 50 μM; for p-ERK1/2 over ERK1/2, normalized to basal (0 min), AT1R / ERK 1/2 activation, AT1R (p-ERK1/2 over ERK1/2, fold over basal): individual experiments
Procedure: HEK293SL cells (10^5 cells per well) were seeded in a poly-L-lysine-coated six-well plate and transiently transfected with 3 μg Flag-AT1R, HA-B2R or HA-β2AR and/or 500 ng Flag-MEK1-WT, Flag-MEK1-DD, Flag-BRAF-WT, Flag-BRAF-V600E, Flag-K-Ras-WT, Flag-K-Ras-G12V, HA-ARF6-WT, or HA-ARF6-T27N. Gαq/11 KO and βarr1/2 KO cells were seeded onto 100 mm dishes at a density of 10^6 cells per dish. Next day, cells were transfected with 3 μg AT1R alone or along with 500 ng of β-arrestin2 using PEI. After 18 h of transfection, cells were detached and re-seeded onto poly-L-lysine coated 12-well plates (~1.5–2 × 10^5cells/well) for subsequent experiments. Forty-eight hours post transfection, in a 37 °C water bath, cells were serum-starved for 30 min, pretreated with DMSO (0.1%) or compound 21/Rasarfin (50 µM or at indicated concentrations) for 30 min, then stimulated or not with the indicated ligand [AngII (1 µM), BK (1 µM), Iso (10 µM) or EGF (100 ng/ml)] at indicated times. Cells were put on ice, washed with PBS and solubilized in 2x laemmli buffer (250 mM Tris–HCl pH 6.8, 2% SDS (w/v), 10% glycerol (v/v), 0.01% bromophenol blue (w/v) and 5% β-mercaptoethanol (v/v)) by heating at 65 °C for 15 min. Lysates were resolved on 10 or 14% SDS-PAGE, transferred to nitrocellulose membranes and immunoblotted for p-ERK1/2, ERK1/2, p-Akt, Akt, HA, Myc, β-actin or FLAG. ImageLab 5.2 software was used to quantify the digital blots as fold of the phosphorylated protein over total protein, which were then normalized as indicated in the figure legends. Uncropped immunoblots are provided in the Source Data file.

[2] = Maximal solubility concentration; format: physicochemical
MDA-MB-231 cells = assay: Cell proliferation assay (IncuCyte confluence), MDA-MB-231; format: cell-based, human
Procedure: Cell proliferation was measured by a label-free, non-invasive cellular confluence assay using IncuCyte Live-Cell Imaging Systems (Essen Bioscience, Ann Arbor, MI, USA). MDA-MB-231 breast cancer and A549 lung carcinomas cells (1500 cells in 150 μl/well) were seeded overnight on a clear 96-well plate. Twenty-four hours later, the cells were treated with 0.1% DMSO, or different concentrations of Rasarfin (as indicated), or 10 µM of 21.4 or 21.8 for 96 h total. The plate was placed in an XL-3 incubation chamber maintained at 37 °C and the cells were photographed using a ×4 objective, every 3 h for 4 days. Cell confluence was calculated using IncuCyte S3 software (2019A) and cell proliferation was expressed as an increase in the percentage of confluence. Experiments were done in triplicate and repeated three times.

AT1R = assay: Endosomal BRET assay of AngII-mediated AT1R internalization (AT1R-RlucII / Endo-rGFP; HTS, validation, concentration-response); format: cell-based, human
Source text: We performed a HT campaign in HEK293 cells using the bystander endosomal BRET sensor, which consists of a Renilla luciferase (RlucII)-tagged AT1R and an acceptor renilla GFP (rGFP) anchored to endosomes through an Endofin-FYVE (Endo-rGFP) domain[12]. AngII-mediated trafficking of AT1R to endosomes was screened against commercial libraries of ~115,000 small molecules (Fig. 1a and Supplementary Data 1). Because our assay is based on luminescence and fluorescence, we excluded 6610 compounds that quenched more than 50% of the luciferase or GFP signals. After excluding 5 AT1R antagonists, we conserved hit compounds blocking by more than 40%, as well as those potentiating by more than 100% receptor internalization. From this collection of 943 compounds, a second validation on AT1R internalization was performed using the same BRET assay, as well as on the agonist-mediated B2R internalization, this time using B2R-RlucII and Endo-rGFP. Only compounds that were revalidated on AT1R and affected B2R endocytosis were kept, which included forty hits (20 potentiators and 20 inhibitors) (Fig. 1b and Supplementary Data 2). We focused on inhibitors that were commercially available at the beginning of the project and tested their cell toxicity by microscopy, looking at cells expressing B2R tagged with YFP, which highlights cell contours and potential morphological changes, such as rounding up of cells following treatment with 50 μM of the compounds that may have indicated cell death. None of the inhibitors tested caused abnormal cell morphological changes when cells were treated with compounds as compared to DMSO-treated cells. Inhibitors were also assessed in terms of structure novelty, derivatization potential, and commercial availability of analogs (within 95–98% similarity from Tanimoto metric, Sci-Finder, https://scifinder-n.cas.org), for structure-activity relationship studies (SAR). They were scored 1–5, from best to worst. We excluded compounds with potential nucleophilic reactivity (e.g., Michael addition: compounds 7, 26, and 27), those reported to have biological activities (compounds 8, 20, 25, 30, and 35) and/or showing autofluorescence (compound 26). Compound 19 ranked high, but only had one other molecule with a similar structure available. Although other molecules could be interesting in their own rights as endocytosis inhibitors (e.g., compounds 1, 9, 11, 12, 13, 24, 31, and 37), we focused on compound 21 (Fig. 1c) because not only did it rank high in our analysis, but it was also the only compound with substantially more similar analogs commercially available at the time of these investigations. In the screen and the follow-up validation assay, 21 inhibited more than 50% AT1R internalization and more than 65% B2R internalization (Supplementary Data 2). […] Because β-arrestins are critically involved in GPCR endocytosis and trafficking in cells, we assessed 21’s effects on β-arrestins’ recruitment to AT1R and B2R at the PM using a BRET assay, as well as their trafficking into endosomes by microscopy.
The chemical library used for initial screening was from Chembridge DiverSet™ (60,000 compounds), Maybridge HitFinder™ (16,000 compounds), Maybridge (selected, 16,000 compounds), SPECS (selected, 16000 compounds), Microsource Discovery Spectrum (2000 compounds), Biomol (natural products, 500 compounds), Prestwick (commercialized products, 1120 compounds), SIGMA LopacTM (1280 compounds) and internal collection (synthesized at Université de Montréal-IRIC, ~4000 compounds). Compounds were all assigned an Université de Montréal number (UM) for internal use. Screen was performed at IRIC HTS facility. KINOMEscan™ profiling was serviced by Eurofin/DiscoverX (San Diego, USA).
HEK293SL cells were seeded at a density of 7.5 × 10^5 cells per 100-mm dish and 24 h later, transiently transfected as such. […]

In the case of `Nn1cnc2scc(-c3ccc(Cc4ccccc4)cc3)c2c1=O` [Barbadin, reference compound], the “MAPK promoted by AT1R” value ([1]; Barbadin 100 µM) is reported as “ineffective at blocking MAPK” and the maximal solubility concentration [2] is reported as 100 µM.

With `CCCC(=O)N1CCN(c2ccc(NC(=O)c3cc4ccccc4o3)cc2Cl)CC1` [Compound 21.8] the “MDA-MB-231 cell proliferation (confluency)” value (MDA-MB-231 cells; 10 µM) was “inhibited cell proliferation”, the “inhibition of AT1R-mediated ERK1/2 (MAPK) activation (Fig. 8b)” value ([1]; 50 μM) was “maintained its MAPK inhibitory property” and the “inhibition of AT1R internalization into endosomes (Fig. 8a)” value (AT1R; 50 μM) was “loss of compounds’ efficacy to inhibit AT1R internalization”.

In the case of `CC(C)C(=O)N1CCN(c2ccc(NC(=O)c3cc4ccccc4o3)cc2Cl)CC1` [Compound 21], the “MDA-MB-231 cell growth (confluency)” value (MDA-MB-231 cells; various concentrations of Rasarfin) is reported as “dose-dependent reduction in cell growth over time”, the “AngII-mediated phosphorylation of ERK1/2” value ([1]; 50 μM) is reported as “totally inhibited” and the “p-ERK1/2 over ERK1/2, normalized to basal (0 min), AT1R” value (“p-ERK1/2 over ERK1/2, normalized” below) ([1]; time 0 min) is reported as 1. The “p-ERK1/2 over ERK1/2, normalized” value ([1]; time 2 min) was 0.1554 and 0.4142 and 0.5216 and 8.819, the “p-ERK1/2 over ERK1/2, normalized” value ([1]; time 5 min) was 0.1741 and 0.568 and 0.6273 and 10.8319 and the “Mean Diff. DMSO vs. compound of P-ERK/ERK (fold over Basal) (Dunnett's multiple comparisons test)” value ([1]; Fig.8b) was 6.88. For the same molecule, the IC50 ([1]; Homo sapiens, read-out: IC50 for inhibition of ERK1/2 activation by AT1R) was 5 µM, the “ERK 1/2 activation, AT1R (p-ERK1/2 over ERK1/2, fold over basal)” value ([1]; Log [Comp 21] (M) -4.3) was 17.8621 percent compared to DMSO and 9.459 percent compared to DMSO and 11.994 percent compared to DMSO and the “ERK 1/2 activation, AT1R (p-ERK1/2 over ERK1/2, fold over basal)” value ([1]; Log [Comp 21] (M) -5) was 18.3493 percent compared to DMSO and 17.9264 percent compared to DMSO and 17.6879 percent compared to DMSO. For the same molecule, the “ERK 1/2 activation, AT1R (p-ERK1/2 over ERK1/2, fold over basal)” value ([1]; Log [Comp 21] (M) -5.3) was 58.8009 percent compared to DMSO and 49.3558 percent compared to DMSO and 49.3771 percent compared to DMSO, the “ERK 1/2 activation, AT1R (p-ERK1/2 over ERK1/2, fold over basal)” value ([1]; Log [Comp 21] (M) -6) was 81.7633 percent compared to DMSO and 93.0329 percent compared to DMSO and 113.57 percent compared to DMSO and the “ERK 1/2 activation, AT1R (p-ERK1/2 over ERK1/2, fold over basal)” value ([1]; Log [Comp 21] (M) -6.3) was 97.88 percent compared to DMSO and 83.5696 percent compared to DMSO. The “ERK 1/2 activation, AT1R (p-ERK1/2 over ERK1/2, fold over basal)” value ([1]; Log [Comp 21] (M) -7) was 100 percent compared to DMSO, the “block of AT1R internalization” value (AT1R; 21 at 50 µM) was “around 90%” and the “Mean Diff. DMSO vs. compound (Fig.8a, Dunnett's multiple comparisons test)” value (AT1R; DMSO = 100) was 49.06. For the same molecule, the IC50 (AT1R; Homo sapiens, AngII, into endosomes, read-out: IC50 for inhibition of AT1R internalization) was 10 µM, the “AT1R internalization into endosomes, ligand-promoted BRET (Mean)” value (from here on “AT1R internalization into endosomes … (Mean)”) (AT1R; Log [Comp21] (M) -4.3) was 13.6921 percent compared to DMSO and the “AT1R internalization into endosomes … (Mean)” value (AT1R; Log [Comp21] (M) -4.6) was 24.3306 percent compared to DMSO. The “AT1R internalization into endosomes … (Mean)” value (AT1R; Log [Comp21] (M) -5) was 74.1156 percent compared to DMSO, the “AT1R internalization into endosomes … (Mean)” value (AT1R; Log [Comp21] (M) -5.3) was 91.7102 percent compared to DMSO and the “AT1R internalization into endosomes … (Mean)” value (AT1R; Log [Comp 21] (M) -6) was 95.8484 percent compared to DMSO. The “AT1R internalization into endosomes … (Mean)” value (AT1R; Log [Comp21] (M) -6.3) was 92.6647 percent compared to DMSO, the “AT1R internalization into endosomes … (Mean)” value (AT1R; Log [Comp 21] (M) -7) was 100.935 percent compared to DMSO and the “AT1R Confirmation Inhibition (%DMSO)” value (AT1R; confirmation, two experiments, negative = potentiation) was 60.3475 %DMSO. For the same molecule, the “AT1R Primary Screen Inhibition (%DMSO)” value (AT1R; primary screen, negative = potentiation) was 53.93 %DMSO, the “inhibition of AT1R internalization” value (AT1R; screen and follow-up validation assay) was “more than 50%” and the solubility ([2]; DMSO, organic solvent or mixture, read-out: maximum solubility concentration in DMSO) was about 50 µM (≈ 21.3 µg/mL).
